Measurements from patent EP0502020B1, “NOVEL BENZO [b] PHENANTHROLINE-1,7 DERIVATIVES, AND THEIR PREPARATION AND THERAPEUTICAL APPLICATIONS” (PIERRE FABRE MEDICAMENT, priority 1989, dated 1991).

Tested on: leucémie murine L 1210
Experiment: Cytotoxic activity on murine leukaemia L 1210 cells in suspension culture, cell count after 48 h
Assay type: cell-based
Details: Mus musculus, L1210; concentration reducing growth by 50 % versus controls; 48 heures d'incubation; Coulter Counter; 37°C, 5 % CO₂
Method: L'activité cytotoxique a été evaluée sur le modèle de la leucémie murine L 1210 cultivée en suspension en milieu iquide à 37°C sous une atmosphère de 5 % CO₂.
Les cellules en phase exponentielle de croissance sont incubées en présence de concentrations croissantes des produits. Après 48 heures d'incubation, les cellules sont comptées (Coulter Counter) et l'effet cytotoxique est évalué par la détermination par régression linéaire de la concentration du produit ayant réduit de 50 % la croissance par rapport aux témoins (IC₅₀).

**Q.** With `COCc1c(O)ccc2cc3ccc4ncccc4c3nc12` [Exemple 2, Hydroxy-10 méthoxyméthyl-11 benzo [b] phénanthroline-1,7] as the molecule, how does the IC50 read?
**A.** 6500 nM

**Q.** `CN1COCc2c1ccc1cc3ccc4ncccc4c3nc21` [Exemple 4, Dihydro-3,4 méthyl-4 1H-benzoxazino [3,1] [5,6-b] phénanthroline-1,7] was tested. Which IC50 did it give?
**A.** 1300 nM

**Q.** With `CNc1ccc2cc3ccc4ncccc4c3nc2c1COC` [Exemple 6, Méthoxyméthyl-11 méthylamino-10 benzo [b] phénanthroline-1,7] as the molecule, how does the IC50 read?
**A.** 1100 nM

**Q.** `CNc1ccc2cc3ccc4ncccc4c3nc2c1CO` [Exemple 7, Hydroxyméthyl-11 méthylamino-10 benzo [b] phénanthroline-1,7] was tested. Which IC50 did it give?
**A.** 170 nM
